Data as given in paper PMC10017042 (Science Advances, 2023).
“And” between values parts separate entries of the source, which are not always exact repeats. Equal values may be shown once. Read-outs that look alike come from different tables or passages of the source.

Experiments:
[1] = Plasma drug concentrations (pyrimethamine UPLC-MS/MS, VPA assay, unbound dolutegravir) in trial participants; format: in vivo, human; conditions: for concentration at 6 h / concentration at 14 day: human, plasma, oral; for concentration at 14 day: day 14
Method: Self-reported adherence was assessed at each study visit, and empty pill strips were collected after the 2-week intervention phase. […] A gradient (0.3 ml/min) with two eluents was used (A: 2 mM ammonium acetate + 0.1% formic acid in water; B: 2 mM ammonium acetate + 0.1% formic acid in methanol). […] For measurement validation, we performed linearity, correctness, LOD and lower LOQ, repeatability, reproducibility, measurement uncertainty, robustness, and carryover. […] Unbound dolutegravir plasma concentrations were quantified with a validated UPLC-MS/MS bioquantification method as previously described ([61]).

BAF complex = BAF complex target gene expression (IL-10, SOCS3, CBX7; control B-ACT) by RT-qPCR in participants; format: in vivo, human
Text: We reasoned that the effect on the expression of these gene targets at later time points (days 14 and 42) would be less useful as specific biomarker of BAF complex inhibition due to treatment interruptions and potential induction via other pathways. […] These findings are consistent with, and might be the consequence of, the generally lower plasma pyrimethamine Ctrough in participants that received the combined intervention regimen compared to those that received solely pyrimethamine.
RT-qPCR reactions were conducted using GoTaq qPCR Master Mix (Promega) following the manufacturer’s protocol. The following thermal cycling protocol was used for amplification: 3 min at 95°C, followed by 40 cycles of 95°C for 10 s and 60°C for 30 s. Expression data were calculated using the 2^−∆∆Ct methodology ([73]). Cyclophilin A was used as a housekeeping gene for the analysis. The list of primers is available in table S9.

HIV-1 [2] = test system: HIV-1
Method: Here, the measurement from the cells obtained >1 year after the last visit was used.
The frequency of CD4^+ T cells expressing MS HIV-1 RNA was determined using TILDA with some modifications to the protocol described previously by our group ([68]). Briefly, total CD4^+ T cells were isolated from PBMCs by negative magnetic selection using EasySep CD4^+ Human CD4^+ T Cell Enrichment kit ([…] Technologies). Following isolation, 1.5 × 10^6 CD4^+ T cells/ml were rested in complete RPMI 1640 for 5 to 8 hours before 12 hours of stimulation with PMA (100 ng/ml) and ionomycin (1 μg/ml) (both from Sigma-Aldrich). After stimulation, CD4^+ T cells were washed and resuspended in serum-free RPMI 1640. Cells were counted and serially diluted accordingly: 1.8 × 10^6 cells/ml, 9 × 10^5 cells/ml, 3 × 10^5 cells/ml, and 1 × 10^5 cells/m. […] In the preamplification reaction, 10 μl of the cell suspension from each dilution was dispensed into 24 to 48 wells of a 96-well plate containing 2 μl of one-step RT-PCR enzyme (Qiagen), 10 μl of 5× one-step RT-PCR buffer (Qiagen), 10 μl of Triton X-100 (0.3%), 0.25 μl of RNAsin (40 U/μl), 2 μl of dNTPs (10 mM each), 1 μl of tat1.4 forward primer (20 μM) and rev reverse primer (20 μM) (as published), and nuclease-free water to a final reaction volume of 50 μl. The one-step RT-PCR was run using the following thermocycling conditions: 50°C for 30 min, 95°C for 15 min, followed by 25 cycles of 95°C for 1 min, 55°C for 1 min, and 72°C for 2 min, and a final extension at 72°C for 5 min. After preamplification, 2 μl of the products was used as input for the real-time PCR to detect tat/rev MS HIV-1 RNA in a final reaction volume of 20 μl, which consisted of 5 μl of 4× TaqMan Fast Advanced Master mix (Thermo Fisher Scientific), 0.4 μl of tat2.0 forward primer, rev reverse primer (each at 20 μM), and MS tat/rev probe (5 μM). The real-time PCR was performed using the following program: 50°C for 5 min, 95°C for 20 s, followed by 45 cycles of 95°C for 3 s and 60°C for 30 s. Positive wells at each dilution were recorded and used to determine the frequency of cells expressing tat/rev MS HIV-1 RNA by the maximum likelihood method.

[3] = Clinical safety: adverse events (CTCAE version 4.0) and treatment adjustments; format: in vivo, human
Method: Hematological parameters and kidney and liver function were monitored before treatment and on days 7, 14, and 42. At each study visit, participants were clinically assessed by the study physician and safety assessments were performed. All participant-reported AE and SAE were evaluated in relation to VPA and pyrimethamine. Severity was graded according to the Common Terminology Criteria for Adverse Events (CTCAE) version 4.0. In the study protocol, a number of stopping rules were defined including a prespecified interim analysis after the inclusion of 14 participants focusing on the number of participants discontinuing study medication during the intervention phase, CD4^+ T cell count <200 cells/μl, possibly drug-related SAE/AE ≥ grade 4, or AIDS-related illness (Centers for Disease Control category C events).

HIV-1 [4] = test system: HIV-1; remark: listed apart in the source
Text: To achieve a constant and the earliest Tmax possible, participants received their first dose of the intervention regimen on day 0 in a fasted state. On day 0, cART and study medication intake were taken under direct supervision of the study staff. The 2-week intervention phase was followed by a 4-week post-intervention phase. Overall, participation involved 11 study visits. To obtain an additional post-intervention phase measurement for the inducible HIV-1 reservoir size, the study was amended and participants were asked to give written consent to an extra blood draw after the 4-week post-intervention phase ended. Plasma HIV-1 RNA levels (COBAS TaqMan; Roche, Basel, Switzerland; LOQ, 20 copies/ml) were monitored at all 11 visits. CD4^+ T cell counts were determined at screening, at the start and end of the intervention phase (days 0 and 14), at day 42, and at the post-intervention phase (≥day 42).

[5] = set-up: method as in PMID 22837004; conditions: assumed for the sampling design; fasted first dose; cited from earlier work
[6] = day 0, 6 hours after first dose relative to pretreatment, arm median
[7] = individual participants, one value each, listed as PYR
[8] = individual participants, one value each, /N, /P suffix not kept

## CCc1nc(N)nc(N)c1-c1ccc(Cl)cc1 [pyrimethamine]
[1]; PLWH on efavirenz- or nevirapine-containing cART
  Median plasma concentration of pyrimethamine with CYP3A inducers: did not have lower
[1]; day 42 (28 days after end of treatment)
  Drug detectable in plasma: No pyrimethamine or VPA was detectable
[1]; 200 mg, Median plasma total pyrimethamine concentration, 6 hours after first dose (200 mg), pyrimethamine alone, seven participants
  concentration at 6 h: 1630 ng/mL
[1]; 200 mg, Median pyrimethamine Ctrough by integrase inhibitor exposure, 6 hours, group printed first of 'versus' pair
  concentration at 6 h: 1300 ng/mL
[1]; 200 mg, Median pyrimethamine Ctrough by integrase inhibitor exposure, 6 hours, group printed second of 'versus' pair
  concentration at 6 h: 1400 ng/mL
[1]; Median plasma total pyrimethamine concentration, 6 hours after first dose, combination arm with VPA
  concentration at 6 h: 1160 ng/mL
[1]; Median pyrimethamine Ctrough by integrase inhibitor exposure, uninterrupted pyrimethamine, group printed first
  concentration at 14 day: 2800 ng/mL
[1]; Median pyrimethamine Ctrough by integrase inhibitor exposure, uninterrupted pyrimethamine, group printed second
  concentration at 14 day: 3200 ng/mL
[1]; Median pyrimethamine Ctrough, combination arm with VPA, four PLWH with uninterrupted exposure
  concentration at 14 day: 1990 ng/mL
[1]; Median pyrimethamine Ctrough, monotherapy arm, six PLWH with uninterrupted exposure
  concentration at 14 day: 3480 ng/mL
[1]; Pyrimethamine plasma level, individual, LUNA-21 (combination arm), stopped treatment at day 10
  concentration at 14 day: 2520 ng/mL
BAF complex; control gene, individual participants, one value each, listed as PYR
  Fold-induction in B-ACTIN gene expression at Day 0, 6 hours relative to Day 0, pretreatment: 1.29 and 1.51 and 0.82 and 0.94 (2×) and 0.86 and 1.04
BAF complex; [6]
  Median fold increase in CBX7 gene expression: 1.68 fold
  Median fold increase in IL-10 gene expression: 2.55 fold
  Median fold increase in SOCS3 gene expression: 2.53 fold
BAF complex; [7]
  Fold-induction in CBX7 gene expression at Day 0, 6 hours relative to Day 0, pretreatment: 1.68 and 1.12 and 12.42 and 4.23 and 2.02 and 1.25 and 1.03
  Fold-induction in IL-10 gene expression at Day 0, 6 hours relative to Day 0, pretreatment: 2.24 and 2.74 and 1.48 and 1.74 and 6.66 and 6.4 and 2.54
  Fold-induction in SOCS3 gene expression at Day 0, 6 hours relative to Day 0, pretreatment: 2.52 and 2.27 and 0.60 and 4.59 and 5.35 and 1.14 and 3.27
HIV-1 [2]; after treatment (day 42)
  Median inducible reservoir (TILDA): 10.0 cells per million CD4+ T cells
HIV-1 [2]; before treatment (day 0)
  Median inducible reservoir (TILDA): 15.1 cells per million CD4+ T cells
HIV-1 [2]; day 0 versus day 42
  Change in inducible reservoir size: do not indicate a significant change
HIV-1 [2]; individual participants, one value each, >1 year after end of treatment, listed as PYR
  TILDA reservoir, cells with multiply spliced HIV-RNA detectable per million CD4+ T-cells, >1year: 19.3 per million CD4+ T-cells and 91.8 per million CD4+ T-cells and 13.9 per million CD4+ T-cells and 6.1 per million CD4+ T-cells and 22.2 per million CD4+ T-cells and 15.2 per million CD4+ T-cells
HIV-1 [2]; [7]
  TILDA reservoir, cells with multiply spliced HIV-RNA detectable per million CD4+ T-cells, Day 42: 8.8 per million CD4+ T-cells and 122.8 per million CD4+ T-cells and 9.0 per million CD4+ T-cells and 1.6 per million CD4+ T-cells and 22.9 per million CD4+ T-cells
HIV-1 [2]; individual participants, one value each, pretreatment baseline, listed as PYR
  TILDA reservoir, cells with multiply spliced HIV-RNA detectable per million CD4+ T-cells, Day 0, 0 hour: 2.7 per million CD4+ T-cells and 109.8 per million CD4+ T-cells and 16.9 per million CD4+ T-cells and 11.5 per million CD4+ T-cells and 15.1 per million CD4+ T-cells and 20.1 per million CD4+ T-cells and 2.8 per million CD4+ T-cells
[3]; 6-week study duration
  Adverse events experienced on pyrimethamine (monotherapy and combination arms) of all AEs: 84 of 103
  Grade 3 adverse events (number): two
[3]; 14-day intervention, seven participants per arm
  Participants who stopped treatment: one
HIV-1 [4]; day 1 time point
  Induction of plasma viremia: no evidence that pyrimethamine induced plasma viremia
HIV-1 [4]; during the study at the fixed measurements, those with pyrimethamine exposure
  Proportion of samples with plasma HIV-1 RNA above the assay detection limit: 22.2%
HIV-1 [4]; entire 6-week trial period, two on VPA, one on pyrimethamine, one on combination
  Plasma HIV-1 RNA in the participants not remaining below LOQ: < 50 copies/ml
HIV-1 [4]; [8]
  Plasma HIV-1 RNA, Day 0, 6hr: < 20
  Plasma HIV-1 RNA, Day 1: < 20
  Plasma HIV-1 RNA, Day 7: < 20
  Plasma HIV-1 RNA, Day 10: < 20
  Plasma HIV-1 RNA, Day 14: < 20
  Plasma HIV-1 RNA, Day 15: < 20
  Plasma HIV-1 RNA, Day 21: < 20
  Plasma HIV-1 RNA, Day 42: < 20
HIV-1 [4]; individual participants, one value each, /N, /P suffix not kept, listed as PYR
  Plasma HIV-1 RNA, Day 28: < 20 (6×) and 20
HIV-1 [4]; individual participants, one value each, pretreatment, /N, /P suffix (genome not detected / detected below quantitation) not kept
  Plasma HIV-1 RNA, Day 0, 0hr: < 20
[5]
  Tmax: approximately 4 hours
